In patent US5760034A, “Heterocyclic substituted naphthyridinones and methods and compositions employing them” (Schering Corporation, priority 1992, dated 1998):

What was measured:
[1] = tested on: SRS-A release; experiment: inhibition of leukotriene (SRS-A) release in vitro, lung fragments of sensitized guinea pigs challenged with ovalbumin; assay type: cell-based; conditions: 12 min preincubation, 20 μg/ml ovalbumin challenge 15 min; for inhibition at 10 µM: Cavia porcellus, guinea pig lung fragments
Method: In one such test procedure, the anti-allergy method of this invention is identified by tests which measure a compound's inhibition of leukotriene release in sensitized guinea pigs. Male Hartley guinea pigs (250-300 g) are sensitized with 5 mg ovalbumin injected i.p. and 5 mg injected s.c. in 1 ml saline on day 1 and 5 mg ovalbumin injected i.p. on day 4. The sensitized animals are used 3-4 weeks later at which time they weigh 450-500 g. Sensitized guinea pigs are killed by a blow to the head and the lungs removed and cleaned of visible connective tissue, trachea and large blood vessels. The lungs from individual animals are sliced into fragments approximately 1 mm in thickness using a McIlwain tissue chopper and then washed with oxygenated Tyrode's buffer. Weighed aliquots (approximately 400 mg wet weight) of lung are transferred into vials containing 2 ml of fresh Tyrode's solution (containing 10 mM cysteine) and incubated in the presence or absence of test compound for 12 min at 37° C. The tissues are then challenged with 20 μg ovalbumin/ml (final concentration) and incubated for 15 min.
To measure leukotriene release, an aliquot of supernatant fluid is extracted with 4 volumes of 100% ethanol. After removal of the precipitated protein, the leukotriene content is measured by a radioimmunoassay using [^3 H]LTC4 and antiserum obtained from New England Nuclear. […] Percent inhibition of lekotriene release is calculated by comparing for each lung the release in the presence of the test compound to that in the absence of test compound.

[2] = tested on: sensitized guinea pigs; experiment: suppression of anaphylactic bronchospasm in ovalbumin-sensitized guinea pigs; assay type: in vivo, guinea pig; conditions: 5 mg/kg, orally 2 hours before ovalbumin challenge; peak increase in intratracheal pressure within 15 minutes vs vehicle
Method: Male Hartley guinea pigs (250-300 g) are sensitized with 5 mg ovalbumin injected i.p. and 5 mg injected s.c. in 1 ml saline on day 1 and 5 mg ovalbumin injected i.p. on day 4. The sensitized animals are used 3-4 weeks later at which time they weigh 450-500 g. The sensitized guinea pigs are fasted overnight and the following morning are anesthetized with 0.9 ml/kg i.p. of dialurethane (0.1 g/ml diallylbarbituric acid, 0.4 g/ml ethylurea and 0.4 g/ml urethane). The trachea are cannulated and the animals are ventilated by a Harvard® rodent respirator at 50 strokes/minute with a stroke volume of 5 ml. A side arm to the tracheal cannula is connected to a pressure transducer (Harvard) to obtain a continuous measure of intratracheal pressure which is recorded on a polygraph (Harvard). The jugular vein is cannulated for the i.v. administration of substances. The sensitized guinea pigs are injected i.v. with 1 mg/kg propranolol, 5 mg/kg indomethacin and 2 mg/kg mepyramine given together in a volume of 1 ml/kg. […] Bronchoconstriction is measured as the peak increase in intratracheal pressure occurring within 15 minutes after antigen challenge.
Test compounds are administered orally 2 hours before challenge with ovalbumin. Suppression of anaphylactic bronchospasm is expressed as a percent inhibition of the peak increase in intratracheal pressure by comparison to a vehicle-treated control group.

Compound	Inhibition of SRS-A release in vitro - Guinea Pig Lung 10 μM [1] [%]	inhibition at 10 µM [1] [%]	Inhibition of anaphylactic bronchospasm, % Inhibition [2] [%]
3-[1,2-Dihydro-3-(4-morpholinyl)-2-oxo-1,8-naphthyridin-1-yl]benzonitrile	66		
3-[3-(Hexahydro-1H-azepin-1-yl)-1,2-dihydro-2-oxo-1,8-naphthyridin-1-yl]-benzo-nitrile	46		
N#Cc1cccc(-n2c(=O)c(N3CCCC3)cc3cccnc32)c1 [3-(1-Pyrrolidinyl)-1-(3-cyanophenyl)-1,8-naphthyridin-2-(1H )-one]		43	
O=c1c(N2CCCC2)cc2cccnc2n1-c1cccc(C(F)(F)F)c1 [3-(1-pyrrolidinyl)-1-(3-trifluoromethylphenyl)-1,8-naphthyridin-2(1H)-one]		46	
O=c1c(N2CCCC2)cc2cccnc2n1-c1ccccc1 [3-(1-pyrrolidinyl)-1-phenyl-1,8-naphthyridin-2(1H)-one]		34	61
O=c1c(N2CCOCC2)cc2cccnc2n1-c1ccccc1 [3-(4-Morpholinyl)-1-phenyl-1,8-naphthyridin-2(1H )-one]		65	93
